Assays:
[1] = system: 3T3-MDR1 cells; experiment: SRB cell viability assay in 3T3-MDR1 cells (ABCB1 expressing); type: cell-based; settings: GI50 3T3-MDR1 over GI50 3T3, without zosuquidar
Protocol: (§1) Cell viability by the sulforhodamine B (SRB) assay was used to assess cell growth and cytotoxicity of test compounds [29]. Cells were seeded at densities of 3,500 to 5,000 cells per well in 96 well plates overnight and pre-treated for 1 h with ABC transporter modulators: 10 μM fumitremorgin C (FTC; in MCF7MX and MCF7 cells), or 0.3 μM of zosuquidar (in 3T3 and 3T3-MDR1). Cells were then treated with test compounds for 72 h, at 37°C. After drug treatment, cells were fixed by addition of 50% trichloroacetic acid (TCA), and the plates washed and dried to allow staining with 0.4% solution of sulforhodamine B (Sigma) in 1% acetic acid for 30 minutes. Excess dye was removed upon washing with 1% acetic acid. Plates were dried and bound protein was solubilised upon addition of 150 μL of 10 mM Tris base buffer. Absorbance was measured at 540 nm using Thermo Multiskan-Ex plate reader. Cell viability versus compound concentration curves were plotted as a percentage of control cells. The concentration of drug that gave 50% inhibition in cell growth (GI50) was extrapolated from these curves using the sigmoid curve fit with variable slope in Prism (GraphPad Prism version 5.01, GraphPad Software, San Diego California USA). Three to six replicate wells were used for each drug concentration and experiments were carried out on three separate occasions for each compound.

[2] = system: ABCB1 (MDR1); experiment: as above; type: cell-based; settings: mouse, 3T3-MDR1 cells (ABCB1 expressing), 72 h, SRB
Protocol: as §1

[3] = Caco2 transwell assay; type: in vitro ADME, human; settings: human, Caco-2, with verapamil 10 mg/mL, pre-treatment for 1 h, pre-treatment with 10 mg/mL verapamil for 1 h; read-out: efflux ratio in the presence of verapamil
Protocol: The caco2 transwell assay was performed to assess permeability. Cells were seeded at a density of 60,000 cells per well in 24 well transwell plates (Millipore, Billerica, Massachutsetts, USA), and maintained in DMEM supplemented with […] glucose (20% FBS, 1% penicillin/streptomycin, 1% glutamine) for 21 days at 37°C in 5% CO2. After 21 days the cells differentiate into enterocytes and express all three MDR proteins, ABCB1 and ABCG2 at the apical side and ABCC1 on the basal side. On day 21, cells were washed three times with Hank's Balanced Salt Solution (HBSS) (Fisher scientific, Loughborough, UK) and the trans-epithelial electric resistance (TERR) was measured using an Epithelial Voltohmmeter (EVOM) (World Precision Instruments, Sarasota, USA); only transwells with TERR of 400 Ω/cm^2 or above were used for the experiment. Cells were treated either at the apical (n = 3) or basal (n = 3) side of the transwell by addition of 10 μM of cyanoquinoline compound or 50 μM vinblastine prepared in a volume of 400 μL HBSS (compound added to apical well) or 800 μL of HBSS (added to basal well). When transport inhibitors FTC (10 μM) or zosuquidar (0.3 μM) were used, they were added to both the apical and basal wells 1 h prior to drug treatment. After 1 h pre-treatment the medium was removed and cells were treated with the compounds prepared in HBSS containing FTC or Zosuquidar.
Plates were incubated in shaker incubator at 37°C and 60 rpm for 120 min. After incubation, 200 μL aliquots from the apical and the basal wells were collected and analysed using high performance liquid chromatography (HPLC). Samples were run on a Millipore Waters HPLC system which included a 717 plus autosampler and 2487 dual wavelength absorbance detector system. The stationary phase comprised of a Phenomenex Luna C18 reverse phase column (150 X 4.6 mm; 5 μm particle size). The mobile phase comprised water (0.1% TFA) and acetonitrile (0.1% TFA) (80:20 v/v) at a flow rate of 1 mL/min for all compounds except vinblastine. For vinblastine, the stationary phase comprised a Supelcosil LC-ABZ reverse phase column (5 × 4.6 mm; 5 μm particle size). The mobile phase comprised water (0.1% formic acid) and methanol (90:10 to 10:90 v/v gradient over 20 min). Peak areas corresponding to the compounds of interest were recorded. Using standard curves the areas under the curve were converted into concentrations of compound. The permeability coefficient (Papp) was calculated using the following equation [30]: Papp = (dQ/dt)/A C0, where A is the surface area of the transwell membrane in cm^2 (= 0.33 cm^2), C0 is the drug concentration in the donor chamber at time t = 0 and dQ/dt is the rate of transfer of the compound to the receiver chamber, determined from the slope of the graph concentration (dQ) versus time (dt). Papp values corresponding to absorption and secretion were assessed and used to calculate efflux ratio. Efflux ratio =(Papp B−A)/(Papp A−B) Where Papp A-B = Papp absorption and Papp B-A = Papp secretion.
The integrity of the caco2 cell membrane was assessed for each well following the experiment by addition of a 100 μM solution of […] (Sigma) in HBSS to the apical side of the plate. The plates were placed in the shaker incubator for 1 h at 37°C and 60 rpm. Samples from the basal wells were transferred into a 96 well plate and the levels of […] were assessed by measuring with an excitation of 450 nm and an emission of 540 nm using the PerkinElmer Wallac 1420 counter.

efflux ratio at 120 min, 10 μM [3]: 1.1
Structure (SMILES): CCOc1cc2ncc(C#N)c(Nc3ccc(F)c(Cl)c3)c2cc1NC(=O)/C=C/CNCc1cn(CCF)nn1 [FED6, (2E)-N-{4-[(3-chloro-4-fluorophenyl)amino]-3-cyano-7-ethoxyquinolin-6-yl}-4-({[1-(2-fluoroethyl)-1H-1,2,3-triazol-4-yl]methyl}amino)-but-2-enamide]
fold increase in GI50 in the ABCB1 overexpressing cell line [1]: > 10 fold | GI50 at 72 h ([2]; with zosuquidar 0.3 μM (1 h pre-treatment), pre-treatment with 0.3 μM zosuquidar): 13.6 ± 0.6 µM | GI50 at 72 h ([2]; without zosuquidar): > 100 µM
